Assay results published in ChEMBL document CHEMBL1123900, “Thienothiopyran-2-sulfonamides: a novel class of water-soluble carbonic anhydrase inhibitors” (J Med Chem, 1987).
Values after ≈ are worked out from the molar mass of the structure shown.

How the values were obtained:
[1] = Total solubility measured on pH 7.4 buffer at 25 degree C; format: ADME; details: read-out: S
[2] = pKa value in 30% EtOH-H20; format: physicochemical; details: 30% EtOH-H2O
Carbonic anhydrase 2 [3] = target: T1, Carbonic anhydrase 2 (Homo sapiens, UniProt P00918)
Description: In vitro inhibition against purified human erythrocyte carbonic anhydrase II was determined (acetozolamide used as control.)

Carbonic anhydrase 2 [4] = target: T1, Carbonic anhydrase 2; remark: listed apart in the source
Description: In vitro binding to human erythrocyte Carbonic anhydrase II was determined by fluorescence competition assay employing the fluorescent CA inhibitor dansylamide

[5] = Solubility (pH 7.4 buffer ar 25 degree C); format: physicochemical; details: read-out: S
Carbonic anhydrase 2 [6] = target: T1, Carbonic anhydrase 2; remark: listed apart in the source
Description: In vitro binding to human erythrocyte carbonic anhydrase was determined by fluorescence competition assay employing the fluorescent CA inhibitor dansylamide

[7] = Partition coefficient determined in 1-octanol buffer pH 7.4; format: physicochemical; details: octanol/water

Structure (SMILES)	pKa [2]	solubility [5] [µg/mL]	Partition coefficient [7]	solubility [1] [µg/mL]	IC50 (Carbonic anhydrase 2 [3]) [nM]	Ki (Carbonic anhydrase 2 [4]) [nM]	Ki (Carbonic anhydrase 2 [6]) [nM]
NS(=O)(=O)c1cc2c(s1)C(=O)CCS2	8.45	–	–	80 (≈ 0.321 mM)	3.5	1.15	–
NS(=O)(=O)c1cc2c(s1)C(O)CC[S+]2[O-] (configuration not stated)	8.82	7200 (≈ 26.9 mM)	–	–	250	–	309
NS(=O)(=O)c1cc2c(s1)CC(O)CS2(=O)=O (configuration not stated)	8.52	7300 (≈ 25.8 mM)	0.2	–	40	–	18.2
NS(=O)(=O)c1cc2c(s1)SCCC2O (configuration not stated)	9.4	640 (≈ 2.55 mM)	–	–	30	28	–
NS(=O)(=O)c1cc2c(s1)SCCC2=O	8.6	70 (≈ 0.281 mM)	–	–	8.5	3.63	–
NS(=O)(=O)c1cc2c(s1)[S+]([O-])CCC2O (configuration not stated)	8.68	12000 (≈ 44.9 mM)	–	–	100	–	104
NS(=O)(=O)c1cc2c(s1)C(O)CCS2 (configuration not stated)	9	1400 (≈ 5.57 mM)	3	–	23	14.2	–

The next lines start with results.

pKa [2]	solubility [5] [µg/mL]	Partition coefficient [7]	Structure (SMILES)	solubility [1] [µg/mL]	IC50 (Carbonic anhydrase 2 [3]) [nM]	Ki (Carbonic anhydrase 2 [4]) [nM]	Ki (Carbonic anhydrase 2 [6]) [nM]
7.32	60 (≈ 0.213 mM)	0.63	NS(=O)(=O)c1cc2c(s1)C(=O)CCS2(=O)=O	–	22	14.1	–
8.35	6300 (≈ 22.2 mM)	0.42	NS(=O)(=O)c1cc2c(s1)S(=O)(=O)CC[C@H]2O	–	–	–	–
8.3	6400 (≈ 22.6 mM)	0.42	NS(=O)(=O)c1cc2c(s1)S(=O)(=O)CC[C@@H]2O	–	–	–	–
–	58 (≈ 0.184 mM)	–	CC(C)(C)C(=O)Oc1ccc2nc(S(N)(=O)=O)sc2c1	–	–	–	–
8.35	12500 (≈ 44.1 mM)	0.45	NS(=O)(=O)c1cc2c(s1)S(=O)(=O)CCC2O (configuration not stated)	–	–	–	–
8.35	560 (≈ 2.09 mM)	–	NS(=O)(=O)c1cc2c(s1)S(=O)(=O)CCC2	–	4.5	–	3.3
7.92	270 (≈ 0.96 mM)	0.92	NS(=O)(=O)c1cc2c(s1)S(=O)(=O)CCC2=O	–	5	–	–
8.34	15000 (≈ 52.9 mM)	–	NS(=O)(=O)c1cc2c(s1)C(O)CCS2(=O)=O (configuration not stated)	–	40	30.5	–
8.6	8200 (≈ 28.9 mM)	–	NS(=O)(=O)c1cc2c(s1)S(=O)(=O)CC(O)C2 (configuration not stated)	–	10	–	7.11
–	24 (≈ 0.0929 mM)	–	CCOc1ccc2nc(S(N)(=O)=O)sc2c1 [ETHOXZOLAMIDE]	–	–	–	–
